This note sets out measurements from paper PMC11224403, “Des-acyl ghrelin reduces alcohol intake and alcohol-induced reward in rodents” (Translational Psychiatry, 2024).

Test [1] concerns male and female rats. The experiment in a line: Intermittent-access alcohol drinking, acute DAG injection. Format: in vivo, Rcc Han Wistar rats. To be noted: for intake of alcohol, water, total fluid, food, alcohol preference, body weight: male and female rats. The text has this: (§1) Male and female Rcc Han Wistar rats (8–12 weeks old at arrival; Envigo, Horst, Netherlands) were used for the alcohol drinking and locomotor activity experiments as they drink alcohol to intoxicating levels. For in vivo microdialysis studies male Wistar rats (Charles River, Calco, Italy) were used as they display robust dopamine levels in NAc shell after alcohol injection. […] All rodents were allowed to habituate to the animal facility at least one week before they entered an experiment. During housing (20 °C with 50% humidity) the rodents had free access to water and standard chow (Teklad Rodent Diet; Envigo, Madison, WI, USA). These experiments were approved by the Ethics Committee for Animal Experiments (ethical numbers: 1457/18, 3276/18, 1556/18, 3348/20; Gothenburg, Sweden) and followed the ARRIVE guidelines. The sample sizes of each experiment were based on previous experience in which statistical significance has been detected. The person who conducted the experiments, and analyzed the collected data was aware of the treatment allocation. Only preset exclusion criteria were used when analyzing the data obtained in attempts to exclude confounding factors in analyzing data. In the alcohol drinking experiments leaking bottles and low alcohol consumption (<3.0 g/kg for males; <3.5 g/kg for females) were preset exclusion criteria. The preset exclusion criterion in the ex vivo HPLC-EC, ELISA, and recombinant cell line experiments was contamination of the sample. Misplaced probes, technical difficulties, and damages to the surgery area were preset exclusion criteria for the in vivo microdialysis experiment. Intra-cage male aggression was the preset exclusion criterion for the locomotor activity and CPP experiments. To minimize tentative confounding factors, the order of treatments was stratified, with treatments being mixed for each animal cage and for each apparatus used as well as balancing the alcohol intake between future treatment groups. Although each experiment only was performed once, they were separated over different laboratory days with equal data obtained between sessions.
(§2) Alcohol (95%; Solveco AB, Stockholm, Sweden) was either diluted to a 20% solution using tap water (drinking experiment) or to a 15% (w/v) solution with 0.9% NaCl. Alcohol was in the behavioral and neurochemical tests injected (intraperitoneally, IP) 5 min before the test. A dose of 1.75 g/kg was used in male mice as it causes robust locomotor stimulation and induces a CPP [37–39], and 2 g/kg was used for rats as it elevates the dopamine levels in NAc shell. DAG (Tocrise Bioscience, Bristol, UK) was dissolved in 0.9% NaCl in doses (0.25–2 mg/kg) known to reduce food intake and DAG was injected IP).
Individually housed rats had intermittent access to an alcohol (20%) bottle and a water bottle, three 24-h sessions per week, and only water bottles the remaining days. A reversed light/dark cycle was used, and the bottles were changed when the lights went out. First, the rats consumed alcohol for 10 weeks (baseline drinking), where the bottles and food were weighed daily and the body weight weekly. During treatments, the bottles and food were weighed at 4- and/or 24-h and the body weight was measured daily. In the first drinking experiment, the potential of DAG to reduce alcohol consumption was tested and therefore, vehicle or DAG (1 mg/kg) was acutely injected into male (n = 12) or female (n = 12) rats. The second drinking experiment was conducted to establish the effects of lower DAG doses on alcohol intake. Therefore, separate male (n = 18) or female (n = 18) rats, were acutely injected with lower DAG doses (0.5 or 0.25 mg/kg) or vehicle. The third alcohol drinking experiment evaluated the ability of repeated DAG injections to lower alcohol drinking. Therefore, additional male (n = 24) and female (n = 24) rats were injected with either vehicle or DAG (1 mg/kg) at three alcohol-drinking sessions. […]

Test [2] has as its system male and female rats. The experiment in a line: Locomotor activity test, DAG per se, rats. To be noted: DAG 0.5, 1.0 or 2.0 mg/kg, 60 min recording, n = 5–6 per group. It is filed as in vivo, Rcc Han Wistar rats. The text has this: Male and female Rcc Han Wistar rats (8–12 weeks old at arrival; Envigo, Horst, Netherlands) were used for the alcohol drinking and locomotor activity experiments as they drink alcohol to intoxicating levels. For in vivo microdialysis studies male Wistar rats (Charles River, Calco, Italy) were used as they display robust dopamine levels in NAc shell after alcohol injection. […] All rodents were allowed to habituate to the animal facility at least one week before they entered an experiment. During housing (20 °C with 50% humidity) the rodents had free access to water and standard chow (Teklad Rodent Diet; Envigo, Madison, WI, USA). […] The sample sizes of each experiment were based on previous experience in which statistical significance has been detected. The person who conducted the experiments, and analyzed the collected data was aware of the treatment allocation. […]
Locomotor activity tests were conducted in ventilated and dim-lit (4 lux) open field arenas (420 × 420 × 200 mm; Med Associates Inc; Georgia, Vermont, USA). Infra-red beams detected distance traveled, number of jumps, vertical counts, average velocity, stereotypic counts, number of inner zone entries, and time spent in the inner/outer zones of each animal. […]
The obtained data are normally distributed and with equal variance. The data from drinking experiments were analyzed by unpaired t-test or repeated two-way ANOVA. […]

In test [3] the test system is male mice. Kind of test: Conditioned place preference (rCPP, mCPP). Format: in vivo, NMRI mice.
Source text: as §1
as §2, with “IP). […]” for “IP).”

Setting [4] is: female rats, acute DAG 1.0 mg/kg IP, n = 5 vs vehicle n = 6, 4 h.
Where [5] appears, read: male rats, acute DAG 1.0 mg/kg IP, n = 5 vs vehicle n = 6, 4 h.
[6] abbreviates: male rats, acute DAG 1.0 mg/kg IP, n = 5 vs vehicle n = 6, 24 h.

On to “des-acyl ghrelin (GSSFLSPEHQRVQQRKESKKPPAKLQPR; Ghrelin-28 non-acylated; UniProt Q9UBU3 24-51, looked up) [DAG, non-octanoylated form of ghrelin; purchased from Tocris (printed Tocrise Bioscience), dissolved in 0.9% NaCl]”, for which the 4-h alcohol intake result is “decreased the 4-h alcohol intake (t9 = 2.05; P = 0.0351)” in test [1] (setting [4]) and “did not alter the A 4-h alcohol intake (t9 = 0.36; P = 0.7264)” in test [1] (setting [5]). The “preference for alcohol, 4-h” value in test [1] (setting [4]) was “reduced it at the I 4-h (t9 = 2.16; P = 0.0294)”; in test [1] (setting [5]), “did not alter the C preference for alcohol at the 4-h time point (t9 = 1.84; P = 0.0983)”. Besides, the 4-h food intake result in test [1] (female rats, acute DAG 1.0 mg/kg IP, n = 5 vs vehicle n = 6, 4 h (first statistic)) is “At neither time point, DAG affected the K, L food intake (t9 = 0.34; P = 0.7414”; in test [1] (setting [5]), “did not affect the E 4-h food intake (t9 = 1.51; P = 0.1657)”. For the same substance, the 24-h alcohol intake entry is listed as “did not alter the 24-h drinking (t9 = 0.22; P = 0.8331)” in test [1] (female rats, acute DAG 1.0 mg/kg IP, n = 5 vs vehicle n = 6, 24 h) and “reduced the alcohol intake at the 24-h time point (t9 = 2.35; P = 0.0432)” in test [1] (setting [6]). Also, the 24-h food intake entry is “At neither time point, DAG affected the K, L food intake (t9 = 0.34; P = 0.7414 and t9 = 1.12; P = 0.2909, respectively)” in test [1] (female rats, acute DAG 1.0 mg/kg IP, n = 5 vs vehicle n = 6, 24 h (second statistic)); “increased the 24-h feeding (t9 = 2.64; P = 0.0271)” in test [1] (setting [6]). The “intake of alcohol, water, total fluid, food, alcohol preference, body weight” value is on record as “did not alter the intake of alcohol, water, total fluid, food intake alcohol preference or body weight in male or female rats” in test [1] (acute DAG 0.25 mg/kg IP, n = 6) and “did not alter the intake of alcohol, water, total fluid, food intake alcohol preference or body weight in male or female rats” in test [1] (acute DAG 0.5 mg/kg IP, n = 6 (males n = 5)). In addition, in test [1] (setting [6]), the “preference for alcohol, 24-h” value is “decreased it at 24 h (t9 = 3.00; P = 0.0149)”. Further, the “locomotor activity, DAG per se” value in test [2] (female rats) and in test [2] (male rats) was “did not influence locomotor activity” throughout. The “memory of alcohol reward (mCPP)” value in test [3] (DAG 1 mg/kg at post-conditioning) is given as “did not reduce the memory of alcohol reward (mCPP, t14 = 1.36, P = 0.1955)”. For the same substance, in test [3] (DAG 1 mg/kg during conditioning with alcohol), the “reward of alcohol in conditioned place preference (rCPP)” value is “attenuated the reward of alcohol in the conditioned place preference test (rCPP, t12 = 2.69, P = 0.0197)”. Moreover, the rCPP per se result in test [3] (DAG 1 mg/kg, only vehicle control instead of alcohol) was “did not influence rCPP (t14 = 0.64, P = 0.5304) per se”. In addition, the mCPP per se result in test [3] (DAG 1 mg/kg, vehicle during conditioning) is recorded as “DAG did neither influence locomotor activity, rCPP, mCPP nor accumbal dopamine per se”.
